Reference: ChEMBL document CHEMBL1131806, “Structure-activity relationships of pyrroloquinazolines as thrombin receptor antagonists” (Bioorg Med Chem Lett, 1999)
Active and inactive are the calls of the source. The calls are words filed in the database; no cut-off is given here.

Key:
[1] = target: T1, Proteinase-activated receptor 1 (Homo sapiens, UniProt P25116); assay: Inhibitory activity against binding to Thrombin receptor 1 (PAR-1)
T1 sequence (P25116 whole entry): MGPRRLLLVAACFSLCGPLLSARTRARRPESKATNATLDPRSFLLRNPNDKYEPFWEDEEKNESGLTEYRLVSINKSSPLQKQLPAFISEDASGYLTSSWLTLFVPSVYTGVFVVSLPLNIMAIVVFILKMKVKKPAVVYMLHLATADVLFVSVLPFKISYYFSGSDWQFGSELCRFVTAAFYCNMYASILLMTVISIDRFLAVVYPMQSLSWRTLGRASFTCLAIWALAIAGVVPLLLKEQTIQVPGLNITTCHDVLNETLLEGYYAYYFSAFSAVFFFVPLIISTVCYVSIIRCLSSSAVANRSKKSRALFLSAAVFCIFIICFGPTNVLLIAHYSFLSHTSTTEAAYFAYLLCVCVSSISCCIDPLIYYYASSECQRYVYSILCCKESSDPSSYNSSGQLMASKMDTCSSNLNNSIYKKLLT

Homo sapiens [2] = species on record: Homo sapiens; assay: Compound was evaluated for the inhibition of platelet aggregation induced by 0.1 U/mL thrombin at concentration. of 10 uM; NA = Not active; type: functional, organism-based
Homo sapiens [3] = species on record: Homo sapiens; assay: Compound was evaluated for the inhibition of aggregation induced by 300 nM ha-TRAP(high affinity thrombin receptor agonist peptide); type: functional, organism-based
Homo sapiens [4] = species on record: Homo sapiens; assay: Compound was evaluated for the inhibition of aggregation induced by 300 nM ha-TRAP(high affinity thrombin receptor agonist peptide) at 10 uM concentration; type: functional
Homo sapiens [5] = species on record: Homo sapiens; assay: Compound was evaluated for the inhibition of aggregation induced by 0.1 U/mL thrombin at 10 uM concentration and determined at 2 min; NA = Not active; type: functional, organism-based
[6] = target: T2, Proteinase-activated receptor 1 (Homo sapiens) (UniProt P25116); assay: Compound was evaluated for inhibitory activity against binding to Thrombin receptor 1 (PAR-1) at 1 uM concentration
T2 sequence (whole entry): T1 sequence (P25116 whole entry)

Homo sapiens [7] = species on record: Homo sapiens; assay: Compound was evaluated for the inhibition of aggregation induced by 300 nM ha-TRAP(high affinity thrombin receptor agonist peptide) at 10 uM concentration; NA = Not active; type: functional, organism-based
Homo sapiens [8] = species on record: Homo sapiens; assay: Compound was evaluated for the inhibition of aggregation induced by 0.1 U/mL thrombin and determined at 2 min.; type: functional, organism-based

IC50 [1] | IC50 (Homo sapiens [3]) | SMILES | inhibition (Homo sapiens [5]) | other results
4500 nM |  | CCc1ccc(Cn2ccc3c4c(N)nc(N)nc4ccc32)cc1 |  | 
100 nM | 2000 nM | CC(C)c1ccc(Cn2ccc3c4c(N)nc(N(C)C)nc4ccc32)cc1 | inactive | 
52 nM | 150 nM | CC(C)c1ccc(Cn2ccc3c4c(N)nc(N(C)C5CC5)nc4ccc32)cc1 |  | IC50 (Homo sapiens [8]): 700 nM
1750 nM |  | Cc1ccc2cc(Cn3ccc4c5c(N)nc(N)nc5ccc43)ccc2c1 |  | 
9600 nM |  | C=Cc1ccc(Cn2ccc3c4c(N)nc(N)nc4ccc32)cc1 |  | 

The next lines start with the compound.

SMILES | IC50 [1] | IC50 (Homo sapiens [3]) | inhibition (Homo sapiens [5]) | other results
CC(C)c1ccc(Cn2ccc3c4c(N)nc(N)nc4ccc32)cc1 | 300 nM | 3000 nM |  | inhibition (Homo sapiens [2]): inactive
CC(C)c1ccc(Cn2ccc3c4c(N(C)C)nc(N(C)C)nc4ccc32)cc1 | 1250 nM |  | inactive | Inhibition (Homo sapiens [4]): 40%
CC(C)c1ccc(Cn2ccc3c4c(N)nc(N5CCc6ccccc6C5)nc4ccc32)cc1 |  |  | inactive | inhibition [6]: inactive
CNc1nc(N(C)C)nc2ccc3c(ccn3Cc3ccc(C(C)C)cc3)c12 | 3200 nM |  | inactive | 
CC(C)c1ccc(Cn2ccc3c4c(N)nc(NCCO)nc4ccc32)cc1 | 4900 nM |  | inactive | inhibition (Homo sapiens [7]): inactive
CNc1nc(N)c2c(ccc3c2ccn3Cc2ccc(C(C)C)cc2)n1 | 870 nM | 600 nM | inactive | 
CC(C)c1ccc(Cn2ccc3c4c(N)nc(NC5CC5)nc4ccc32)cc1 | 56 nM | 300 nM |  | IC50 (Homo sapiens [8]): 3000 nM
CCOc1ccc(Cn2ccc3c4c(N)nc(N)nc4ccc32)cc1 | 2630 nM |  |  | 
CC(C)c1ccc(Cn2ccc3c4c(N)nc(N5CCCCC5)nc4ccc32)cc1 | 100 nM | 600 nM | inactive | 
CCNc1nc(N)c2c(ccc3c2ccn3Cc2ccc(C(C)C)cc2)n1 | 524 nM | 600 nM | inactive | 
CC(C)(C)c1ccc(Cn2ccc3c4c(N)nc(N)nc4ccc32)cc1 | 1230 nM |  |  | 
CC(C)c1ccc(Cn2ccc3c4c(N)nc(N5CCNCC5)nc4ccc32)cc1 |  |  | inactive | inhibition (Homo sapiens [7]): inactive; inhibition [6]: 17%
CSc1ccc(Cn2ccc3c4c(N)nc(N)nc4ccc32)cc1 | 6880 nM |  |  | 
